Results taken from ChEMBL document CHEMBL6115007, “Synthesis and in vitro and in vivo evaluation of novel bivalent quinolines as antitumor agents via targeting autophagy in cervical cancer” (Eur J Med Chem, 2025).
Calls of active or inactive are those of the source. The rule behind the calls is not given here.

Legend:
HeLa [1] = assay: Induction of autophagy in human HeLa cells transfected with mRFP-GFP-LC3 plasmid assessed as decrease in GFP fluorescence at 30 uM incubated for 24 hrs by DAPI staining based fluorescence confocal microscopic analysis; format: functional, cell-based
Ca-Ski [2] = assay: Effect on TRFC protein expression level in human Ca Ski cells at 0.5 uM incubated for 24 hrs by Western blot analysis; format: functional, cell-based
HeLa [3] = assay: Induction of apoptosis in human HeLa cells assessed as viable cells at 1.2 uM incubated for 24 hrs by Annexin V-FITC/PI staining based flow cytometric analysis (reference value: 96.2 %); format: functional; conditions: read-out: Activity
HeLa [4] = assay: Induction of autophagy in human HeLa cells assessed as increase in LC3-I conversion to LC3-II at 0.3 to 1.2 microM incubated for 24 hrs by Western blot analysis; format: functional, cell-based; conditions: dose 0.3-1.2 µM
HeLa [5] = assay: Inhibition of colony formation in human HeLa cells assessed as reduction in colony forming unit count at 0.15 to 0.6 uM incubated for 24 hrs by crystal violet staining based analysis; format: functional, cell-based; conditions: dose 0.15-0.6 µM
Ca-Ski [6] = assay: Effect on cleaved caspase 3 expression level in human Ca Ski cells at 0.25 to 1 uM incubated for 24 hrs by Western blot analysis; format: functional, cell-based; conditions: dose 0.25-1 µM
C-33-A = assay: Antiproliferative activity against human C-33-A cells assessed as inhibition of cell growth at 0.3 to 1.2 uM by CCK8 assay; format: functional, cell-based; conditions: dose 0.3-1.2 µM, time 6.0 day
Ca-Ski [7] = assay: Induction of apoptosis in human Ca Ski cells assessed as necrotic cells at 1 uM incubated for 24 hrs by Annexin V-FITC/PI staining based flow cytometric analysis (reference value: 3.15 %); format: functional
Ca-Ski [8] = assay: Induction of autophagy in human Ca Ski cells assessed as increase in LC3-II accumulation at 0.5 uM incubated for 3 to 48 hrs by Western blot analysis; format: functional, cell-based; conditions: time 3-48 hrs
HeLa [9] = assay: Effect on ACSL4 protein expression level in human HeLa cells at 0.6 uM incubated for 24 hrs by Western blot analysis; format: functional, cell-based
HeLa [10] = assay: Induction of apoptosis in human HeLa cells assessed as early apoptotic cells at 0.6 uM incubated for 24 hrs by Annexin V-FITC/PI staining based flow cytometric analysis (reference value: 0.97 %); format: functional
HeLa [11] = assay: Induction of autophagy in human HeLa cells transfected with mRFP-GFP-LC3 plasmid assessed as decrease in GFP fluorescence at 0.4 to 0.8 uM incubated for 24 hrs by DAPI staining based fluorescence confocal microscopic analysis; format: functional, cell-based; conditions: dose 0.4-0.8 µM
HeLa [12] = assay: Effect on PARP expression level in p53 deficient human HeLa cells at 0.6 to 1.2 uM incubated for 24 hrs by Western blot analysis; format: functional, cell-based; conditions: dose 0.6-1.2 µM
[13] = Toxicity in female BALB/c mouse xenografted with human HeLa cells assessed as effect on kidney at 4 to 8 mg/kg administered every four days and measured after 26 days by H and E staining based analysis; format: organism-based; conditions: in vivo, 624 h, dose 4-8 mg/kg, time 26 day
Ca-Ski [14] = assay: Antiproliferative activity against p53 deficient human Ca Ski cells assessed as inhibition of cell viability incubated for 24 hrs by CCK8 assay; format: functional, cell-based
HeLa [15] = assay: Induction of autophagy in ATG5 deficient human HeLa cells assessed as increase in LC3-II expression at 0.6 to 1.2 uM incubated for 24 hrs by Western blot analysis; format: functional, cell-based; conditions: dose 0.6-1.2 µM
Ca-Ski [16] = assay: Induction of apoptosis in human Ca Ski cells assessed as viable cells at 0.5 uM incubated for 24 hrs by Annexin V-FITC/PI staining based flow cytometric analysis (reference value: 86.8 %); format: functional; conditions: read-out: Activity
HeLa [17] = assay: Antiproliferative activity against human HeLa cells assessed as inhibition of cell viability incubated for 24 hrs by CCK8 assay; format: functional, cell-based
Ca-Ski [18] = assay: Inhibition of colony formation in ATG5 deficient human Ca Ski cells at 0.1 to 0.4 uM incubated for 24 hrs by crystal violet staining based analysis; format: functional, cell-based; conditions: dose 0.1-0.4 µM
Ca-Ski [19] = assay: Effect on cleaved PARP expression level in human Ca Ski cells at 0.25 to 1 uM incubated for 24 hrs by Western blot analysis; format: functional, cell-based; conditions: dose 0.25-1 µM
HeLa [20] = assay: Antitumor activity against human HeLa cells xenografted in female BALB/c mouse assessed as reduction in tumor growth at 4 to 8 mg/kg administered every four days and measured after 26 days; format: functional, organism-based; conditions: dose 4-8 mg/kg, time 26.0 day
HeLa [21] = assay: Effect on ferroptosis pathway related gene expression in human HeLa cells at 1.2 uM incubated for 24 hrs by GSVA enrichment analysis; format: functional, cell-based
HeLa [22] = assay: Antitumor activity against human HeLa cells xenografted in female BALB/c mouse assessed as reduction in tumor weight at 8 mg/kg administered every four days and measured after 26 days relative to control; format: functional; design: scale not given: the % may be the effect or the level left; conditions: time 26 day
Ca-Ski [23] = assay: Effect on PARP expression level in Bax deficient human Ca Ski cells at 0.5 to 1 uM incubated for 24 hrs by Western blot analysis; format: functional, cell-based; conditions: dose 0.5-1 µM
HeLa [24] = assay: Effect on cleaved PARP expression level in p53 deficient human HeLa cells at 0.6 to 1.2 uM incubated for 24 hrs by Western blot analysis; format: functional, cell-based; conditions: dose 0.6-1.2 µM
HCT-116 = assay: Antiproliferative activity against human HCT-116 cells assessed as reduction in cell optical density incubated for 48 hrs by MTT assay; format: functional, cell-based; conditions: HCT-116, 48 h
HeLa [25] = assay: Induction of autophagy in human HeLa cells transfected with mRFP-GFP-LC3 plasmid assessed as appearance of RFP puncta clusters as aggregates in cytoplasm at 0.4 to 0.8 uM incubated for 24 hrs by DAPI staining based fluorescence confocal microscopic analysis; format: functional, cell-based; conditions: dose 0.4-0.8 µM
Ca-Ski [26] = assay: Induction of morphological changes in human Ca Ski cells assessed as increase in appearance of round cells at 0.5 to 2 uM by microphotographic analysis; format: functional, cell-based; conditions: dose 0.5-2 µM
Ca-Ski [27] = assay: Induction of apoptosis in human Ca Ski cells assessed as early apoptotic cells at 0.5 uM preincubated with Z-VAD-FMK for 1 hrs followed by compound addition and measured after 24 hrs by Annexin V-FITC/PI staining based flow cytometric analysis (reference value: 2.91 %); format: functional
[28] = Toxicity in female BALB/c mouse xenografted with human HeLa cells assessed as effect on ALT level at 4 to 8 mg/kg administered every four days and measured after 26 days; format: organism-based; conditions: in vivo, 624 h, dose 4-8 mg/kg, time 26 day
Ca-Ski [29] = assay: Effect on caspase 3 expression level in Bax deficient human Ca Ski cells at 0.5 to 1 uM incubated for 24 hrs by Western blot analysis; format: functional, cell-based; conditions: dose 0.5-1 µM
HeLa [30] = assay: Antiproliferative activity against p53 deficient human HeLa cells assessed as inhibition of cell viability incubated for 24 hrs by CCK8 assay; format: functional, cell-based
HeLa [31] = assay: Induction of morphological changes in human HeLa cells assessed as decrease in cell adherence to culture dish at 0.6 to 2.4 uM by microphotographic analysis; format: functional, cell-based; conditions: dose 0.6-2.4 µM
Ca-Ski [32] = assay: Induction of morphological changes in human Ca Ski cells assessed as decrease in cell adherence to culture dish at 0.5 to 2 uM by microphotographic analysis; format: functional, cell-based; conditions: dose 0.5-2 µM

IC50 (HeLa [17]): 648 nM
IC50 (HCT-116): 260 nM
IC50 (HeLa [30]): 1110 nM
SMILES: COc1cccc(Nc2ccnc3cc(OCCCCCOc4ccc5c(Nc6cccc(OC)c6)ccnc5c4)ccc23)c1
Activity (HeLa [1]): Active
Activity (Ca-Ski [2]): inactive
viability at 1.2 µM (HeLa [3]): 93.2%
Activity (HeLa [4]): Active
inhibition (HeLa [5]): Active
Activity (Ca-Ski [6]): inactive
Activity (C-33-A): Time-dependent-effect
Activity (Ca-Ski [7]): 2.98%
Activity (Ca-Ski [8]): Active
Activity (HeLa [9]): Moderate_effect
Activity (HeLa [10]): 0.8%
Activity (HeLa [11]): Active
Activity (HeLa [12]): inactive
Activity [13]: Non-toxic
IC50 (Ca-Ski [14]): 872 nM
Activity (HeLa [15]): inactive
viability at 0.5 µM (Ca-Ski [16]): 85.5%
Activity (HeLa [17]): Dose-dependent-effect
inhibition (Ca-Ski [18]): Minimal_effect
Activity (Ca-Ski [19]): inactive
Activity (HeLa [20]): Active
Activity (HeLa [21]): Minimal_effect
Activity (HeLa [22]): 81.76%
Activity (Ca-Ski [23]): inactive
Activity (HeLa [24]): inactive
Activity (HeLa [25]): Active
Activity (Ca-Ski [26]): Active
Activity (Ca-Ski [27]): 7.65%
Activity [28]: Non-toxic
Activity (Ca-Ski [29]): inactive
Activity (HeLa [31]): Active
Activity (Ca-Ski [32]): Active
